From publication PMC8762706, “Design of Coibamide A Mimetics with Improved Cellular Bioactivity” (ACS Medicinal Chemistry Letters, 2021)
Where a SMILES comes first, the peptide text is derived from it. Bridges are numbered along the chain shown (N, C = ends). [ ]: non-standard residue; d: D form. The star is where a group is joined. Phe(4-NO2) = N[C@@H](Cc1ccc([N+](=O)[O-])cc1)C(=O)O; Phe(4-N3) = [N-]=[N+]=Nc1ccc(C[C@H](N)C(=O)O)cc1; Phe(4-CF3) = N[C@@H](Cc1ccc(C(F)(F)F)cc1)C(=O)O; Phe(4-tBu) = CC(C)(C)c1ccc(C[C@H](N)C(=O)O)cc1; Phe(4-CN) = N#Cc1ccc(C[C@H](N)C(=O)O)cc1; Phe(4-Cl) = N[C@@H](Cc1ccc(Cl)cc1)C(=O)O; dNMeaIle = CC[C@H](C)[C@@H](NC)C(=O)O; NMe2Val = CC(C)[C@@H](C(=O)*)N(C)C; NMeLys(Me) = CNCCCC[C@H](NC)C(=O)O; NMeI = CC[C@H](C)[C@H](NC)C(=O)O; NMeL = CN[C@@H](CC(C)C)C(=O)O; dHiv = CC(C)[C@@H](O)C(=O)O; NMeA = CN[C@@H](C)C(=O)O; dNMeA = CN[C@H](C)C(=O)O

System: A549 cells
Test: Growth inhibition assay (MTS) in A549 cells
Type: cell-based
Details: read-out: IC50 (concentration for 50% growth inhibition of A549 cells), MTS assay, 72 h treatment, 0.5% DMSO, absorbance 490 nm, n = 3
Procedure: Growth Inhibition AssayS3
A549 cells were cultured in Dulbecco’s modified Eagle’s medium (DMEM; Sigma) supplemented with 10% (v/v) fetal bovine serum at 37 °C in a 5% CO2-incubator. Growth inhibition assays using A549 cells were performed in 96-well plates (BD Falcon). A549 cells were seeded at 1000 cells/well in 90 μL of culture media, respectively, and were cultured for 24 h. Chemical compounds in DMSO were diluted 50-fold with the culture medium in advance. 30 μL of the chemical diluents were added.
The final volume of DMSO in the medium was equal to 0.5% (v/v). The cells under chemical treatment were incubated for a further 72 h. The wells in the plates were washed twice with the cultured medium without phenol-red. After 1-hour incubation with 100 μL of the medium, the cell culture in each well was supplemented with 20 μL of the MTS reagent (Promega), followed by incubation for additional 40 min. Absorbance at 490 nm of each well was measured using a Wallac 1420 ARVO SX multilabel counter (Perkin Elmer). Three experiments were performed per condition and the averages of inhibition rates in each condition were evaluated to determine IC50 values using the GraphPad Prism software.

| Compound | IC50 |
| --- | --- |
| CC[C@H](C)[C@H]1C(=O)N[C@@H](C)C(=O)N(C)[C@@H](CC(C)C)C(=O)N[C@@H](Cc2ccc(OC)cc2)C(=O)N(C)CCCC[C@H](N(C)C(=O)[C@H](CC(C)C)N(C)C(=O)[C@H](C)N(C)C(=O)[C@H](OC(=O)[C@H](C(C)C)N(C)C)C(C)C)C(=O)N(C)[C@H](C)C(=O)N1C [9a] (NMe2Val-[dHiv][NMeA][NMeL][NMeLys(Me)][dNMeA][NMeI]A[NMeL]Y(Me); lactam 4-C) | > 10000 nM |
| CC[C@H](C)[C@@H]1C(=O)N[C@@H](C)C(=O)N(C)[C@@H](CC(C)C)C(=O)N[C@@H](Cc2ccc(OC)cc2)C(=O)N(C)CCCC[C@H](N(C)C(=O)[C@H](CC(C)C)N(C)C(=O)[C@H](C)N(C)C(=O)[C@H](OC(=O)[C@H](C(C)C)N(C)C)C(C)C)C(=O)N(C)[C@@H](C)C(=O)N1C [9b] (NMe2Val-[dHiv][NMeA][NMeL][NMeLys(Me)][NMeA][dNMeaIle]A[NMeL]Y(Me); lactam 4-C) | > 10000 nM |
| CC[C@H](C)[C@H]1C(=O)N[C@H](C)C(=O)N(C)[C@@H](CC(C)C)C(=O)N[C@@H](Cc2ccc(OC)cc2)C(=O)N(C)CCCC[C@H](N(C)C(=O)[C@H](CC(C)C)N(C)C(=O)[C@H](C)N(C)C(=O)[C@H](OC(=O)[C@H](C(C)C)N(C)C)C(C)C)C(=O)N(C)[C@@H](C)C(=O)N1C [9c] (NMe2Val-[dHiv][NMeA][NMeL][NMeLys(Me)][NMeA][NMeI][dA][NMeL]Y(Me); lactam 4-C) | > 10000 nM |
| CC[C@H](C)[C@H]1C(=O)N[C@@H](C)C(=O)N(C)[C@@H](CC(C)C)C(=O)N[C@H](Cc2ccc(OC)cc2)C(=O)N(C)CCCC[C@H](N(C)C(=O)[C@H](CC(C)C)N(C)C(=O)[C@H](C)N(C)C(=O)[C@H](OC(=O)[C@H](C(C)C)N(C)C)C(C)C)C(=O)N(C)[C@@H](C)C(=O)N1C [9e] (NMe2Val-[dHiv][NMeA][NMeL][NMeLys(Me)][NMeA][NMeI]A[NMeL][dY](Me); lactam 4-C) | > 10000 nM |
| CC[C@H](C)[C@H]1C(=O)N[C@@H](C)C(=O)N(C)[C@@H](CC(C)C)C(=O)N[C@@H](Cc2ccc([N+](=O)[O-])cc2)C(=O)N(C)CCCC[C@H](N(C)C(=O)[C@H](CC(C)C)N(C)C(=O)[C@H](C)N(C)C(=O)[C@H](OC(=O)[C@H](C(C)C)N(C)C)C(C)C)C(=O)N(C)[C@@H](C)C(=O)N1C [10b] (NMe2Val-[dHiv][NMeA][NMeL][NMeLys(Me)][NMeA][NMeI]A[NMeL][Phe(4-NO2)]; lactam 4-C) | 1100 ± 200 nM |
| CC[C@H](C)[C@H]1C(=O)N[C@@H](C)C(=O)N(C)[C@@H](CC(C)C)C(=O)N[C@@H](Cc2ccc(C(F)(F)F)cc2)C(=O)N(C)CCCC[C@H](N(C)C(=O)[C@H](CC(C)C)N(C)C(=O)[C@H](C)N(C)C(=O)[C@H](OC(=O)[C@H](C(C)C)N(C)C)C(C)C)C(=O)N(C)[C@@H](C)C(=O)N1C [10c] (NMe2Val-[dHiv][NMeA][NMeL][NMeLys(Me)][NMeA][NMeI]A[NMeL][Phe(4-CF3)]; lactam 4-C) | 370 ± 70 nM |
| CC[C@H](C)[C@H]1C(=O)N[C@@H](C)C(=O)N(C)[C@@H](CC(C)C)C(=O)N[C@@H](Cc2ccc(C#N)cc2)C(=O)N(C)CCCC[C@H](N(C)C(=O)[C@H](CC(C)C)N(C)C(=O)[C@H](C)N(C)C(=O)[C@H](OC(=O)[C@H](C(C)C)N(C)C)C(C)C)C(=O)N(C)[C@@H](C)C(=O)N1C [10d] (NMe2Val-[dHiv][NMeA][NMeL][NMeLys(Me)][NMeA][NMeI]A[NMeL][Phe(4-CN)]; lactam 4-C) | 1500 ± 500 nM |
| CC[C@H](C)[C@H]1C(=O)N[C@@H](C)C(=O)N(C)[C@@H](CC(C)C)C(=O)N[C@@H](Cc2ccc(N=[N+]=[N-])cc2)C(=O)N(C)CCCC[C@H](N(C)C(=O)[C@H](CC(C)C)N(C)C(=O)[C@H](C)N(C)C(=O)[C@H](OC(=O)[C@H](C(C)C)N(C)C)C(C)C)C(=O)N(C)[C@@H](C)C(=O)N1C [10e] (NMe2Val-[dHiv][NMeA][NMeL][NMeLys(Me)][NMeA][NMeI]A[NMeL][Phe(4-N3)]; lactam 4-C) | 380 ± 50 nM |
| CC[C@H](C)[C@H]1C(=O)N[C@@H](C)C(=O)N(C)[C@@H](CC(C)C)C(=O)N[C@@H](Cc2ccc(Cl)cc2)C(=O)N(C)CCCC[C@H](N(C)C(=O)[C@H](CC(C)C)N(C)C(=O)[C@H](C)N(C)C(=O)[C@H](OC(=O)[C@H](C(C)C)N(C)C)C(C)C)C(=O)N(C)[C@@H](C)C(=O)N1C [10f] (NMe2Val-[dHiv][NMeA][NMeL][NMeLys(Me)][NMeA][NMeI]A[NMeL][Phe(4-Cl)]; lactam 4-C) | 710 ± 190 nM |
| CC[C@H](C)[C@H]1C(=O)N[C@@H](C)C(=O)N(C)[C@@H](CC(C)C)C(=O)N[C@@H](Cc2ccc(C(C)(C)C)cc2)C(=O)N(C)CCCC[C@H](N(C)C(=O)[C@H](CC(C)C)N(C)C(=O)[C@H](C)N(C)C(=O)[C@H](OC(=O)[C@H](C(C)C)N(C)C)C(C)C)C(=O)N(C)[C@@H](C)C(=O)N1C [10g] (NMe2Val-[dHiv][NMeA][NMeL][NMeLys(Me)][NMeA][NMeI]A[NMeL][Phe(4-tBu)]; lactam 4-C) | 610 ± 210 nM |
